In the experiment the target is Neuronal acetylcholine receptor alpha3/beta4 (Sus scrofa). Description: Binding affinity to Nicotinic acetylcholine receptor alpha3-beta4 using +/-[3H]epibatidine as radioligand in pig adrenal gland.

By Ki is commonly meant the equilibrium dissociation constant of an inhibitor or competing ligand from its target. A higher Ki goes with lower affinity.

On to `C1=C(c2ccnnc2)C2CC[C@H](CC1)N2` [2-Pyridazin-4-yl-9-aza-bicyclo[4.2.1]non-2-ene], for which the inhibition constant Ki was 2.5 nM. The molecule `C1=C(c2cncnc2)C2CC[C@H](CC1)N2` [2-Pyrimidin-5-yl-9-aza-bicyclo[4.2.1]non-2-ene] had a Ki of 20 nM.

For the origin of these results see BindingDB's records for doi:10.1021/jm010936y (2002).
